Results on 21 compounds are retold here after ChEMBL document CHEMBL1139807, “Discovery of (-)-6-[2-[4-(3-fluorophenyl)-4-hydroxy-1-piperidinyl]-1-hydroxyethyl]-3,4-dihydro-2(1H)-quinolinone--a potent NR2B-selective N-methyl D-aspartate (NMDA) antagonist for the treatment of pain” (Bioorg Med Chem Lett, 2007).

One series addresses Cytochrome P450 2D6 (Homo sapiens, UniProt P10635). Kind of series: Displacement of [3H]bufuralol from CYP2D6. Format: ADME. A general note: Loss of bound radioactivity is the signal in a displacement assay; it reports binding, not function.
For series [1], the target named is Glutamate receptor ionotropic, NMDA 2B (Rattus norvegicus, UniProt P35439+Q00960). Put plainly: Displacement of [3H]racemic CP-101606 from rat NR2B receptor in P2 membrane. Type of series: cell membranes.
The target in series [2] is Voltage-gated inwardly rectifying potassium channel KCNH2 (Homo sapiens, UniProt Q12809). Put plainly: Displacement of [3H]bufuralol from hERG channel expressed in HEK293 cells.
A further series deals with hERG (KCNH2) (Homo sapiens, UniProt Q12809). Put plainly: Blockade of hERG channel expressed in HEK293 cells by electrophysiological method. Format: cell-based. Particulars: HEK293 cells expressing hERG channel.
Series [3] can be described thus: Ratio of Half life of compound in human liver microsome HHM0168 to half life in human liver microsome HHM0168 in presence of CYP2D6. Type of series: ADME. The conditions noted are these: microsomes. In general terms: Liver microsomes are vesicles of endoplasmic reticulum, rich in cytochrome P450 enzymes.
For a further series, the system named is Rattus norvegicus. Kind of series: Effect on haloperidol catalepsy in po dosed rat assessed as latency to paw withdrawal. Particulars: read-out: MED. Format: functional.

Chain of Cytochrome P450 2D6 (P10635 whole entry): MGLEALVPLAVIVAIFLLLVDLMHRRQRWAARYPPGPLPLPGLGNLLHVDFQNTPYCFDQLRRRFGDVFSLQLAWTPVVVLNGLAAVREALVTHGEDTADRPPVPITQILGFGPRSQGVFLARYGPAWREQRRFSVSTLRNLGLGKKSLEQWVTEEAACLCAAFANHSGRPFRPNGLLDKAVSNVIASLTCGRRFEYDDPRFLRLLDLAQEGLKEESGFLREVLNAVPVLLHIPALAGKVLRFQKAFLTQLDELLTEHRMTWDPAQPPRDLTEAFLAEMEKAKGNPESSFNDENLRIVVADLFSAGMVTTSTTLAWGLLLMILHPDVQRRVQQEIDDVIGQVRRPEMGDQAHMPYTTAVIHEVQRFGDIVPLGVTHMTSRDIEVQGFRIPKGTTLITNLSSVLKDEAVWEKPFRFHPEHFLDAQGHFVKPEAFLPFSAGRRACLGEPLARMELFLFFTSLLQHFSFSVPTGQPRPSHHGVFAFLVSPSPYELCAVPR
Chain of Voltage-gated inwardly rectifying potassium channel KCNH2 (Q12809 whole entry): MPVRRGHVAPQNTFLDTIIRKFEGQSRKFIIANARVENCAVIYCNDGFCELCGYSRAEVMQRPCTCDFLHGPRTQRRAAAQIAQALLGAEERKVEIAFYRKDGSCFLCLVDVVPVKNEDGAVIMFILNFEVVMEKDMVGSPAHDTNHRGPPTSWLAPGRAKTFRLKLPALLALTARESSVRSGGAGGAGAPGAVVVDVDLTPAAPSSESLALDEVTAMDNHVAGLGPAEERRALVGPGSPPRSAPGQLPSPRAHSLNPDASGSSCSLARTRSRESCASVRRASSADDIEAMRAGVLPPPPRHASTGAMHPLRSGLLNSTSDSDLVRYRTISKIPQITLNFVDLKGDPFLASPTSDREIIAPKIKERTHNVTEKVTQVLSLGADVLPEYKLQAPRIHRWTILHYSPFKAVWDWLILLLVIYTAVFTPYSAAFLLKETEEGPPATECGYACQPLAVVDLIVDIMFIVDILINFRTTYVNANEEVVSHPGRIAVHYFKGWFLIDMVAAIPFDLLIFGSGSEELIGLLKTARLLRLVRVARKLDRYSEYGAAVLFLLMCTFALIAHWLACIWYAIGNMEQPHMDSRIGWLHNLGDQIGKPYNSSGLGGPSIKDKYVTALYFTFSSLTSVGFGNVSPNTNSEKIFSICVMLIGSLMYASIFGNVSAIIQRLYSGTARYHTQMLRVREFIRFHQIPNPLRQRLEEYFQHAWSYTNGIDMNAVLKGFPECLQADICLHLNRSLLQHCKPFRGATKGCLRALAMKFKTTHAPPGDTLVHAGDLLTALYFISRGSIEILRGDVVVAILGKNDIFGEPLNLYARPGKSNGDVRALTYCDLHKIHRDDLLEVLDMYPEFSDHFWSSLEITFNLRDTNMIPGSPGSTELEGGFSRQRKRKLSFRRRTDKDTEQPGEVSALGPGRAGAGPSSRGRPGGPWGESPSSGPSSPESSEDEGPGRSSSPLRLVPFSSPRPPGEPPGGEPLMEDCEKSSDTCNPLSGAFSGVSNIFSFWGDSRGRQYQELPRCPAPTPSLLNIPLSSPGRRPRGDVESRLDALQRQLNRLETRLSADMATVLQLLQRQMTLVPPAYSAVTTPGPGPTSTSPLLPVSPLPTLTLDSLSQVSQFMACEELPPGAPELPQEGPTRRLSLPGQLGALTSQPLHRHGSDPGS
Chain of Glutamate receptor ionotropic, NMDA 2B (Q00960 whole entry, one chain of several): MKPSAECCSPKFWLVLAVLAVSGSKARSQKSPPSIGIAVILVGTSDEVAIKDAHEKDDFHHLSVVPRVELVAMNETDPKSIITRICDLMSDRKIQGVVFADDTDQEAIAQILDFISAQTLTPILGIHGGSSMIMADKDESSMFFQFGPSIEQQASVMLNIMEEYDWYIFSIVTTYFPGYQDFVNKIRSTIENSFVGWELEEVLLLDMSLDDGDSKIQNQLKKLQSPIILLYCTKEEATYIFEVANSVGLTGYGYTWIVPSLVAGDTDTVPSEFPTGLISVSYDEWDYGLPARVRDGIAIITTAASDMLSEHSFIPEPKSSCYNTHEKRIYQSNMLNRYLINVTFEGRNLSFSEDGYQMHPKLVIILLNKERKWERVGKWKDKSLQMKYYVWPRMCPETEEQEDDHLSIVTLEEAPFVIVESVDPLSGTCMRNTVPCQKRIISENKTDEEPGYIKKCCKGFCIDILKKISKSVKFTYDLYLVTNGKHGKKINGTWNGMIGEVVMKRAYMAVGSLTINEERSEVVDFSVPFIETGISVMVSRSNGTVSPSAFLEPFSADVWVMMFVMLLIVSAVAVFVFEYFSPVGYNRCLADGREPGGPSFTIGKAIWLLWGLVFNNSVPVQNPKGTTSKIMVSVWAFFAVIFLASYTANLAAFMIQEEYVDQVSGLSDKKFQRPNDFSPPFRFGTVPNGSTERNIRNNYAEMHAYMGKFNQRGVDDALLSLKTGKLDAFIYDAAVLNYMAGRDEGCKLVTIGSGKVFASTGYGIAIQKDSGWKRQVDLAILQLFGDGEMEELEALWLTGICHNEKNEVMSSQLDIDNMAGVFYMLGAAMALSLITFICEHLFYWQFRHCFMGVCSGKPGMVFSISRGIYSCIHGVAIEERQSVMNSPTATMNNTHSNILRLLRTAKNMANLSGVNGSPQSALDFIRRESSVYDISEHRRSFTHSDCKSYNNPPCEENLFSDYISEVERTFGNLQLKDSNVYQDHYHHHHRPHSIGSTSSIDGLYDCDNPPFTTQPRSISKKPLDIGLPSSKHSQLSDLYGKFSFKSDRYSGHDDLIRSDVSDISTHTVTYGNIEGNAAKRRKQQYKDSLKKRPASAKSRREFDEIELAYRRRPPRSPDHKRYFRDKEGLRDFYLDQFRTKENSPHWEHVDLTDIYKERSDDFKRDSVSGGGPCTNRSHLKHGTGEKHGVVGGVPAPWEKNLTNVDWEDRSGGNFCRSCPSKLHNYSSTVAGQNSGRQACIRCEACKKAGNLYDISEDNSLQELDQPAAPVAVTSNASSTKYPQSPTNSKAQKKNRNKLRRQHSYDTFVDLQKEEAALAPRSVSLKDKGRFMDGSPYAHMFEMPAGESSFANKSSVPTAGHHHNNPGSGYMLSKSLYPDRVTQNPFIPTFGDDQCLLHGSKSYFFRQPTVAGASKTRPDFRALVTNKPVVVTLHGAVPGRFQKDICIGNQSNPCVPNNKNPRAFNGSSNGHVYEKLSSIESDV
Chain of hERG (KCNH2) (Q12809 whole entry): as the sequence (Q12809 whole entry) above

As a reminder, the IC50 is the midpoint of a concentration-inhibition curve. A low value points to greater potency. On to `Cc1cc(C(O)C(C)N2CCC(O)(c3ccc(F)cc3)CC2)ccc1O` (racemic), for which, on Cytochrome P450 2D6, the IC50 was less than 300 nM.

As usually defined, the IC20 is the concentration needed for an effect of 20%. A low value points to greater potency. As to `O=C1CCc2cc(C(O)CN3CCC(O)(c4cccc(F)c4)CC3)ccc2N1` (single isomer, unassigned; (-)), the figures for the IC50 in series [1] and in series [2] were 5 nM and 21000 nM, respectively. In addition, on hERG (KCNH2), the IC20 was found to be 1100 nM.

Turning to `CC(C(O)c1ccc2c(c1)CN(C)C(=O)N2)N1CCC(O)(c2ccc(F)cc2)CC1` (racemic), the half-maximal inhibitory concentration (IC50) in series [1] is 14 nM; in series [2] it was 3100 nM; on Cytochrome P450 2D6, more than 30000 nM. The Ratio in series [3] is on record as 1.

Turning to `O=C1CCc2cc(C(O)CN3CCC(O)(c4cccc(F)c4)CC3)ccc2N1` (racemic), the values for the IC50 in series [1] and in series [2] were 4.5 nM and 13000 nM, respectively.

In the case of `O=C1CCc2cc(C(O)CN3CCC(O)(c4cccc(F)c4)CC3)ccc2N1` (single isomer, unassigned; (+)), the IC50 in series [1] was 6.8 nM; in series [2] it was 9800 nM.

As for `CC(C(O)c1ccc2c(c1)CCC(=O)N2)N1CCC(O)(c2ccc(F)cc2)CC1` (racemic), the IC50 in series [1] was 11 nM; on Cytochrome P450 2D6 it was more than 30000 nM.

For `Cc1cc(O)ccc1C(O)C(C)N1CCC(O)(c2ccc(F)cc2)CC1` (racemic), the IC50 was 16 nM in series [1] and 3900 nM on Cytochrome P450 2D6. In addition, the Ratio in series [3] is recorded as more than 4.5.

Take `CC(C(O)c1ccc(O)c(Cl)c1)N1CCC(O)(c2ccc(F)cc2)CC1` (racemic): the IC50 in series [1] was found to be 5.6 nM; at Cytochrome P450 2D6 it was 3500 nM. For the same compound, in series [3], the Ratio stood at 1.6.

Regarding `CC(C(O)c1ccc2[nH]c(=O)oc2c1)N1CCC(O)(c2ccc(F)cc2)CC1` (racemic), the IC50 in series [1] worked out at 41 nM; in series [2] it was 2600 nM; at Cytochrome P450 2D6, 11000 nM. The Ratio in series [3] worked out at 1.

For `CC(C(O)c1ccc2c(c1)CCC(=O)N2)N1CCC(O)(c2ccc3c(c2)COCC3)CC1` (racemic), the values for the IC50 in series [1] and in series [2] were 15 nM and 16000 nM, respectively. Also, in the series with Rattus norvegicus, the minimal effective dose was more than 30 mg/kg.

As to `CC(C(O)c1ccc2c(c1)OCC(=O)N2)N1CCC(O)(c2ccc(F)cc2)CC1` (racemic), the IC50 in series [1] is 8.7 nM; in series [2], 1600 nM; at Cytochrome P450 2D6 it was more than 30000 nM. Further, the Ratio in series [3] worked out at 1.

Compound `COc1cccc(C2(O)CCN(C(C)C(O)c3ccc4c(c3)CCC(=O)N4)CC2)c1` (racemic) returned an IC50 in series [1] of 8.3 nM. Further, in the series on Rattus norvegicus, the minimal effective dose was determined as 30 mg/kg.

With `CC(C(O)c1ccc2c(c1)CCC(=O)N2)N1CCC(O)(c2ccc(Cl)cc2)CC1` (racemic), in series [1], the IC50 was 6.6 nM. Further, the minimal effective dose with Rattus norvegicus came to 10 mg/kg.

Take `CC(C(O)c1ccc2c(c1)CNC(=O)N2)N1CCC(O)(c2ccc(F)cc2)CC1` (racemic): the IC50 was 9.1 nM in series [1], 7400 nM in series [2] and more than 30000 nM on Cytochrome P450 2D6. Also, the Ratio in series [3] is 1.

With `CC(C(O)c1ccc(O)c(C(C)(C)C)c1)N1CCC(O)(c2ccc(F)cc2)CC1` (racemic), in series [1], the IC50 was more than 5000 nM.

For the compound `CC(C(O)c1ccc2c(c1)CCC(=O)N2)N1CCC(O)(c2cccc(F)c2)CC1` (racemic), the IC50 in series [1] was found to be 10 nM. In addition, the minimal effective dose in the series on Rattus norvegicus is 10 mg/kg.

For the compound `Cc1ccc(C2(O)CCN(C(C)C(O)c3ccc4c(c3)CCC(=O)N4)CC2)cc1` (racemic), the IC50 in series [1] turned out to be 9.1 nM. In other words, the single-digit nanomolar range.

Consider `CC(C(O)c1ccc(O)c(-c2ccccc2)c1)N1CCC(O)(c2ccc(F)cc2)CC1` (racemic), for which the IC50 came out at 570 nM in series [1] and 8400 nM on Cytochrome P450 2D6.

Consider `CC(C(O)c1ccc2c(c1)CCC(=O)N2)N1CCC(O)(c2cccc(COc3ccccc3)c2)CC1` (racemic), for which the IC50 in series [1] came out at 6.3 nM.

For the compound `CC(C(O)c1ccc2c(c1)COC(=O)N2)N1CCC(O)(c2ccc(F)cc2)CC1` (racemic), the IC50 in series [1] was 18 nM; in series [2], 2400 nM; at Cytochrome P450 2D6, more than 30000 nM. Moreover, the Ratio in series [3] came to 1.

In series [2], `C[C@@H]([C@@H](O)c1ccc(O)cc1)N1CCC(O)(c2ccccc2)CC1` [TRAXOPRODIL] showed an IC50 of 10000 nM. In addition, it took 150 nM to reach the 20% level against hERG (KCNH2) (IC20).
